Experimental data as given in patent publication US20250312333A1, “COMPOSITION CONTAINING ARIPIPRAZOLE AS ACTIVE INGREDIENT FOR ENHANCING ANTICANCER EFFECT OF KRAS G12C GENETIC MUTATION THERAPEUTIC AGENT” (KOREA INSTITUTE OF RADIOLOGICAL & MEDICAL SCIENCES, priority 2022, published 2025).

Key:
Format in all cases: cell-based
NOXA protein [1] = test: NOXA protein expression by Western blot in MIA PaCa-2 cells; conditions: aripiprazole treatment, eight hours, Western blot (FIG. 1)
Method: (§1) To identify an effect of aripiprazole on the expression of a NOXA protein in cancer cells, MIA PaCa-2 cells and NCI-H1373 cells were treated with aripiprazole. Eight hours later, proteins were extracted from cells after washing with PBS, and a level of NOXA expression was checked via Western blot.

NOXA protein [2] = test: NOXA protein expression by Western blot in NCI-H1373 cells; conditions: aripiprazole treatment, eight hours, Western blot (FIG. 1)
Method: as §1

MIA PaCa-2 cells = test: PARP cleavage (apoptosis) by Western blot in MIA PaCa-2 cells; conditions: co-treatment with the therapeutic agent for KRAS G12C genetic mutation vs either agent alone, twenty four hours (FIG. 3)
Method: (§2) To identify the effect of aripiprazole on apoptosis induced by the therapeutic agent for KRAS G12C genetic mutation in cancer cells, MIA PaCa-2 cells were treated with aripiprazole alone or in combination with the therapeutic agent for KRAS G12C genetic mutation. Twenty four hours later, proteins were extracted from cells after washing with PBS, and the degree of PARP cleavage was checked via Western blot.

NCI-H1373 cells = test: PARP cleavage (apoptosis) by Western blot in NCI-H1373 cells; conditions: co-treatment with the therapeutic agent for KRAS G12C genetic mutation vs either agent alone, twenty four hours (FIG. 4)
Method: as §2, with “NCI-H1373” for “MIA PaCa-2”

Question: With `O=C1CCc2ccc(OCCCCN3CCN(c4cccc(Cl)c4Cl)CC3)cc2N1` [aripiprazole] as the compound, how does the “expression of NOXA protein” value (NOXA protein [1]) read?
Answer: increased

Question: And the “expression of NOXA protein” value (NOXA protein [2])?
Answer: increased

Question: And the “degree of PARP cleavage” value (MIA PaCa-2 cells)?
Answer: superior effect of inducing PARP cleavage

Question: What about the “degree of PARP cleavage” value (NCI-H1373 cells) of the same compound?
Answer: superior effect of inducing PARP cleavage
